Values of other authors, collected in patent publication US5278308A, “Iodine derivatives of tetrabenazine” (The Trustees of The University of Pennsylvania, priority 1992, dated 1994).

How the values were obtained:
[1] = system: monoamine uptake-storage mechanism of amine granules in the synapse; settings: in vivo; cited from earlier work
[2] = system: monoamine transporter of chromaffin granules and CNS synaptic vesicles; settings: cited from earlier work

Structure (SMILES): COC(=O)[C@H]1[C@H]2C[C@@H]3c4[nH]c5cc(OC)ccc5c4CCN3C[C@H]2C[C@@H](OC(=O)c2cc(OC)c(OC)c(OC)c2)[C@@H]1OC [Reserpine]
- Irreversible damage to storage mechanism / neurons (in words) [1]: the storage mechanism is irreversibly damaged

Structure (SMILES): COc1cc2c(cc1OC)C1CC(OC(C)=O)C(CC(C)C)CN1CC2 (centres unmarked) [acetyl derivative of dihydro-TBZ]
- binding affinity for the transporter (in words) [2]: retain high affinity
